The text below walks through data of patent publication US6664274B1, “Piperidine derivatives as serotonine reuptake inhibitors” (Eli Lilly and Company, priority 1999, dated 2003).

Where a name gives a salt, the structure may show the parent alone.

With `OC(C1CCCCC1)C(CCN1CC=C(c2cccc3sccc23)CC1)c1ccccn1` (stereo not shown) (as salt: oxalate), the melting point fell in the range of 80 to 85 °C.

In general, melting point refers to the temperature of the solid-liquid transition.
